Assay results published in ChEMBL document CHEMBL1201862, “PubChem BioAssay data set” (2004).
The source made the active and inactive calls.

Key:
[1] = target: Low molecular weight phosphotyrosine protein phosphatase (Homo sapiens, UniProt P24666); format: functional; settings: read-out: IC50_Mean;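 note: Dose-response confirmation assay measuring inhibition of LMPTP enzyme activity by fluorescence intensity read-out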
[2] = target: Beta Lactamase (Pseudomonas aeruginosa, UniProt Q932Y6); assay: BLA reporter interference, concentration series – BLA reporter cells, FRET fluorescence, artefact control for NOD2-RIPK2 interaction inhibitor project, dose response (AID 651552); format: functional, cell-based
Chain of Beta Lactamase (Q932Y6 whole entry, the tested form may be a part): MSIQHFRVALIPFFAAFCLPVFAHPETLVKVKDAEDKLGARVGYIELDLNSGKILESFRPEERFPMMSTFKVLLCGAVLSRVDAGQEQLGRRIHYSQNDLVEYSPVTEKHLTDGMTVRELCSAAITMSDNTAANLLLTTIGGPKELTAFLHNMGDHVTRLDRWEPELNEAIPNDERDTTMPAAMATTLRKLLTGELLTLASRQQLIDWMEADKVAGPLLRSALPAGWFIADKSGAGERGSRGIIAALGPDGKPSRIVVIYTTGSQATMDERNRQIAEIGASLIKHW

[3] = Fluorescence-based cell-based high throughput dose response assay for inhibitors of the interaction of nucleotide-binding oligomerization domain containing 2 (NOD2) and the receptor-interacting serine-threonine kinase 2 (RIPK2).; format: functional; settings: Homo sapiens
[4] = target: Hepatocyte nuclear factor 4-alpha (Homo sapiens, UniProt P41235); format: functional, cell-based;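 note: biochemical luminescence-based dose-response counterscreen measuring inhibition of HNF4 dimerization, run alongside a screen for blockers of ABHD5–perilipin-5 interaction; split luciferase complementation of HNF4 fusion proteins in cell lysate measuring dimerization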
Chain of Hepatocyte nuclear factor 4-alpha (P41235 whole entry, the tested form may be a part): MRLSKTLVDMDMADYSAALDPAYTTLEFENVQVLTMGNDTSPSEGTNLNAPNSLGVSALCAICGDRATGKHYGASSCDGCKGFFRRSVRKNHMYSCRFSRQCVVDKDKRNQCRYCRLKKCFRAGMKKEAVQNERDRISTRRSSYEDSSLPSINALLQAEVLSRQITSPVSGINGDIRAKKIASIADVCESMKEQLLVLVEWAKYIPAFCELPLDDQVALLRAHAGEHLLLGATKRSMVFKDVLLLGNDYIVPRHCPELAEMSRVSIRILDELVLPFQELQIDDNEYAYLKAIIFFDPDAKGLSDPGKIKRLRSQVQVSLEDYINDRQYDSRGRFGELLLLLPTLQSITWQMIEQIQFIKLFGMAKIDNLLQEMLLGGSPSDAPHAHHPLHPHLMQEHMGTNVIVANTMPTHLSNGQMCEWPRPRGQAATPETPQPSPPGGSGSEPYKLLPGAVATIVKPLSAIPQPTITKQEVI

[5] = target: T1, ATP-dependent translocase ABCB1 (Homo sapiens, UniProt P08183); assay: inhibition of BCRP-mediated JC-1 efflux – Ig-MXP3 cells, flow cytometry, set 2, dose response (AID 504566); format: functional; settings: read-out: EC50_MICROM_;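 note: flow cytometry median green fluorescence of retained JC-1 dye; potency of efflux pump inhibition measured as rising substrate retention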
T1 sequence (P08183 whole entry): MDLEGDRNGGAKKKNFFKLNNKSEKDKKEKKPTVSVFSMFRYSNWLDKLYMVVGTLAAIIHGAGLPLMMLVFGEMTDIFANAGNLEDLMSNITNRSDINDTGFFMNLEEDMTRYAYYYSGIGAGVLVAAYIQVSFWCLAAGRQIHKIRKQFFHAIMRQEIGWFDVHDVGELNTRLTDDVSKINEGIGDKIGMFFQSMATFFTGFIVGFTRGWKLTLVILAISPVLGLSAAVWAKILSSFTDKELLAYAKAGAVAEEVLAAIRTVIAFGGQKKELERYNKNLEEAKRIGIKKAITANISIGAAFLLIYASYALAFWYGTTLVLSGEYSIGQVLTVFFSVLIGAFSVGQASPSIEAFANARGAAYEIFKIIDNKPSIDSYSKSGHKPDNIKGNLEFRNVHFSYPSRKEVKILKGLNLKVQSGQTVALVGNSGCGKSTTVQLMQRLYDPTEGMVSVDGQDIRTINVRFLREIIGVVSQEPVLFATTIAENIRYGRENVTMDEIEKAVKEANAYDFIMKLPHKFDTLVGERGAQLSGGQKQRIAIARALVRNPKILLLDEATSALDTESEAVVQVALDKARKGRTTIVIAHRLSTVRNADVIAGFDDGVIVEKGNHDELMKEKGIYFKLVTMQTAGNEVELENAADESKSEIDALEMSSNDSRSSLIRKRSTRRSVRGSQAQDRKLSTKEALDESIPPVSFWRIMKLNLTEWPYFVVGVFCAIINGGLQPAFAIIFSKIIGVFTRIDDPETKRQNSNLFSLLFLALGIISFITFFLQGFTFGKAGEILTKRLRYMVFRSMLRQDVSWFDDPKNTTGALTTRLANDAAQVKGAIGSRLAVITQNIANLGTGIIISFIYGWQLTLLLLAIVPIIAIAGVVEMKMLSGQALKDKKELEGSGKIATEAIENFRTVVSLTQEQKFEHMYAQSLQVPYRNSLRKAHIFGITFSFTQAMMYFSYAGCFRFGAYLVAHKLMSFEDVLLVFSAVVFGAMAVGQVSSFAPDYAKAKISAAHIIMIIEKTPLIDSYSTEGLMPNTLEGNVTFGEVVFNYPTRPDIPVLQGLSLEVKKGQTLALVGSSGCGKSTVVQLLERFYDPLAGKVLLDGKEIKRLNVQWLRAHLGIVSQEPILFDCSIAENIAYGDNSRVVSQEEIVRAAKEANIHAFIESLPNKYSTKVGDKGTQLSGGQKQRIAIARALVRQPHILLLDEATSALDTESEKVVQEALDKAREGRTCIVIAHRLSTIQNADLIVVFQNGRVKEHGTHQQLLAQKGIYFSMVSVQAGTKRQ

[6] = target: T1, ATP-dependent translocase ABCB1; assay: P-gp JC-1 efflux blockade concentration-response – Jurkat-DNR cells, flow cytometry, set 2, dose response (AID 504569); format: functional; settings: read-out: EC50_MICROM_;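 note: potency of pump inhibitors that raise cellular JC-1 green fluorescence up to the nicardipine level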
[7] = mouse fibroblast viability loss – cell-based, cherry-pick samples, set 2, cytotoxicity control for T. cruzi growth inhibitor project, dose response (AID 651817); format: functional; settings: NIH3T3
[8] = target: T2, Alkaline phosphatase, tissue-nonspecific isozyme (Homo sapiens, UniProt P05186)
T2 sequence (P05186 whole entry): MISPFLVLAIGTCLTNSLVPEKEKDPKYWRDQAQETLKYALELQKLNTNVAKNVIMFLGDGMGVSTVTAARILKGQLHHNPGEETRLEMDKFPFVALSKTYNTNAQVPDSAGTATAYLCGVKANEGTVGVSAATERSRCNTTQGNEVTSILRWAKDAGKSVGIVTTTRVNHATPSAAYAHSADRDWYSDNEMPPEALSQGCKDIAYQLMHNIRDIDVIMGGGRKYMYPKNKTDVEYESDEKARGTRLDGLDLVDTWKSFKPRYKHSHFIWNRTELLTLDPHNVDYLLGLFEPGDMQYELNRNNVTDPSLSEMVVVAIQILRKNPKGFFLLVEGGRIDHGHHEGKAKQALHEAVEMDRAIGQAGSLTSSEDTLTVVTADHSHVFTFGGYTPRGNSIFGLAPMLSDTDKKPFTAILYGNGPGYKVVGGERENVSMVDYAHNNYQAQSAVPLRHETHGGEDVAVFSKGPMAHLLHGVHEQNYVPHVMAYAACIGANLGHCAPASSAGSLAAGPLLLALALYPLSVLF

[9] = target: Beta-lactamase (Pseudomonas aeruginosa, UniProt Q79MP6);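 note: biochemical dose-response test of metallo-beta-lactamase enzyme inhibition, read out by epi-absorbance; purified recombinant IMP-1 metallo-beta-lactamase with nitrocefin as substrate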
Chain of Beta-lactamase (Pseudomonas aeruginosa, UniProt Q79MP6) (Q79MP6 whole entry): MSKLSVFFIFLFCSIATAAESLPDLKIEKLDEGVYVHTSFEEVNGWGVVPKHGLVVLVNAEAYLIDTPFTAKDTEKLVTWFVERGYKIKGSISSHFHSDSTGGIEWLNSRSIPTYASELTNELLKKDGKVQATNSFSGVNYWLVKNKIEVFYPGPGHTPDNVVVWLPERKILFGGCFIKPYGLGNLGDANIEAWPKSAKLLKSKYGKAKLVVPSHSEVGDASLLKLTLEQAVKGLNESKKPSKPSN

[10] = target: Beta-lactamase (Salmonella choleraesuis (strain SC-B67), UniProt Q5J463)
Chain of Beta-lactamase (Salmonella choleraesuis (strain SC-B67), UniProt Q5J463) (Q5J463 whole entry): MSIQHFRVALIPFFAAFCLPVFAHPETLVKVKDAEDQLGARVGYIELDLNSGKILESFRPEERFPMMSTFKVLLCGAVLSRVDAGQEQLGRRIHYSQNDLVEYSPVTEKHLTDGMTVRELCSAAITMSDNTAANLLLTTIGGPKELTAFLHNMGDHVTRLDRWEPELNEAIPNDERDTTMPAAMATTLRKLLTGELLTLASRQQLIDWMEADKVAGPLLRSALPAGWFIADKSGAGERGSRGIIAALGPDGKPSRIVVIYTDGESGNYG

[11] = target: T1, ATP-dependent translocase ABCB1; assay: inhibition of P-gp mediated JC-1 efflux – Jurkat-DNR cells, flow cytometry, dose response (AID 1689); format: functional
[12] = target: T3, Interleukin-8 (Homo sapiens, UniProt P10145); assay: Dose Response confirmation of uHTS small molecule hits for cystic fibrosis induced NFkb Inhibitors in a PAF-induced IL8 counterscreen.; format: functional; settings: read-out: IC50_Mean
T3 sequence (P10145 whole entry): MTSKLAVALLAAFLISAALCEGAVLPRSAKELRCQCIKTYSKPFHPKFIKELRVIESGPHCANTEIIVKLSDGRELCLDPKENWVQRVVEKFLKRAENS

[13] = target: T3, Interleukin-8; assay: Dose Response confirmation of uHTS small molecule hits for cystic fibrosis induced NFkb Inhibitors in a TNFa-induced IL8 counterscreen.; format: functional; settings: read-out: IC50_Mean

Chain of Low molecular weight phosphotyrosine protein phosphatase (P24666 whole entry): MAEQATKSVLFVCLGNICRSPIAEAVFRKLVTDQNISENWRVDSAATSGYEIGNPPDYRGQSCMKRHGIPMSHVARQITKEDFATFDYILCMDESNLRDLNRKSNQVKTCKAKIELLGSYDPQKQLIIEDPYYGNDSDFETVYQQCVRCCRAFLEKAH

Compound: COC(=O)c1ccc(C(=O)OC)c(NC(=O)Cc2cccs2)c1
- IC50 [1]: 27.9 µM (inactive)

Compound: Cc1c(C(=O)Nc2ccccc2)c2ccc(C(F)(F)F)cc2n1O
- IC50 [2]: 19.4 µM (inactive)
- IC50 [3]: 14.5 µM (inactive)

Compound: O=C(NC1CCCCC1)C(c1ccc(-c2ccccc2)cc1)n1c(=O)c(-c2ccco2)nc2ccccc21 (stereo not drawn)
- IC50 [4]: 2.74 µM (active)

Compound: O=C(c1ccoc1)N1CCN(c2cc(-c3ccc(F)cc3)nc3cc(-c4cccc(Cl)c4)nn23)CC1
- EC50 [5]: 2.75 µM (active)
- EC50 [6]: 5.57 µM (active)

Compound: C[C@@H]1CN([C@H](C)CO)C(=O)c2cccc(NC(=O)c3nc4ccccc4s3)c2O[C@H]1CN(C)S(=O)(=O)c1ccccc1
- AC50 [7]: 39 µM (inactive)

Compound: CCN1/C(=C/C=C/c2oc3ccc4ccccc4c3[n+]2CC)Oc2ccc3ccccc3c21
- EC50 [8]: > 100 µM (not active)
- IC50 [9]: > 59.6 µM (inactive)
- IC50 [10]: > 59.6 µM (inactive)
- EC50 [11]: 0.713 µM (active)

Compound: COc1cccc(-c2ccc3ncnc(NCc4cc(C)cs4)c3c2)c1
- IC50 [12]: 12.4 µM (inactive)
- IC50 [13]: 5.37 µM (active)
